Reference: US8937183B2, “Detection of hydrogen peroxide” (Promega Corporation, priority 2011, dated 2015)

Experiment: Signal strength differences due to reaction pH and buffer composition (hydrogen peroxide, D-cysteine conversion, LDR)
Format: biochemical
Conditions: for Net Average Signals at 15 Minutes / Net Average Signals at 60 Minutes / Net Average Signals at 105 Minutes: 100 μl of 10 μM H2O2 added
Description: A 30 μl sample of 4 mg/ml PBI 4458 in DMSO was diluted to 1.5 ml with Nanopure water, and 50 μl added to wells A1-12 and E1-12 of a microtiter plate. A 30 μl sample of 4 mg/ml PBI 4472 in DMSO was diluted to 1.5 ml with Nanopure, and 50 μl added to wells B1-12 and F1-12 of the plate. A 30 μl sample of 4 mg/ml PBI 4480 in DMSO was diluted to 1.5 ml with Nanopure water, and 50 μl added to wells C1-12 and G1-12 of the plate. A 30 μl sample of 4 mg/ml PBI 4481 in DMSO was diluted to 1.5 ml with Nanopure water, and 50 μl added to wells D1-12 and H1-12 of the plate. To the plate, a 50 μl sample of 200 mM KHPO4, pH 7.4 was added to wells A1-D4; 50 μl 200 mM Tris buffer, pH 7.4 was added to wells A5-D8; 50 μl 250 mM HEPES buffer, pH 7.5 was added to wells A9-D12; 50 μl 200 mM KHPO4 buffer, pH 9.2 was added to wells E1-H4; 50 μl 250 mM Tris buffer, pH 10.4 was added to wells E5-H8; and 50 μl 100 mM CAPS buffer, pH 10.4 was added to wells E9-H12.
A sample of hydrogen peroxide (30%, Sigma, H1009-5 ml) was diluted to 10 μM with Nanopure water, and 100 μl added to columns 3, 4, 7, 8, 11, 12 wells A-H of the plate. 100 μl Nanopure water was added to columns 1, 2, 5, 6, 9 and 10 of the plate. The plate was incubated at room temperature for 15 minutes.
A conversion solution was made by mixing 5 ml of 1 M HEPES buffer, pH 7.5, 4.9 ml of Nanopure water and 100 μl of 100 mM D-cysteine (in Nanopure water), and […] added to all wells of a luminometer plate.
After incubation, 25 μl of sample from all wells in the plate was transferred and mixed into the corresponding wells in the luminometer plate, incubated 2-3 minutes at room temperature, and 50 μl LDR (Example 23) added. The luminometer plate was incubated for 15 minutes at room temperature, and bioluminescence detected on a GloMax® luminometer.
Additional samples were taken at 60 and 105 minutes and added to a fresh luminometer plates containing 25 μl of conversion solution in all wells. The plates were then incubated for 15 minutes at room temperature, and bioluminescence detected as previously described.

## CC1(C)OB(c2ccc(COc3ccc4nc(C#N)sc4c3)cc2)OC1(C)C [PBI 4472, 6-((4-(4,4,5,5-tetramethyl-1,3,2-dioxaborolan-2-yl)benzyl)oxy)benzo-[d]thiazole-2-carbonitrile]
CAPS pH 10.4, 15 minutes
  Signal to Background Ratios at 15 Minutes: 17.0
  Net Average Signals at 15 Minutes: 3,154,440 RLU
CAPS pH 10.4, 60 minutes
  Signal to Background Ratios at 60 Minutes: 15.4
  Net Average Signals at 60 Minutes: 5,425,701 RLU
CAPS pH 10.4, 105 minutes
  Signal to Background Ratios at 105 Minutes: 11.3
  Net Average Signals at 105 Minutes: 7,554,957 RLU
HEPES pH 7.5, 15 minutes
  Signal to Background Ratios at 15 Minutes: 3.9
  Net Average Signals at 15 Minutes: 58,399 RLU
HEPES pH 7.5, 60 minutes
  Signal to Background Ratios at 60 Minutes: 8.0
  Net Average Signals at 60 Minutes: 159,982 RLU
HEPES pH 7.5, 105 minutes
  Signal to Background Ratios at 105 Minutes: 8.2
  Net Average Signals at 105 Minutes: 259,725 RLU
KPO4 Ph 7.4, 15 minutes
  Net Average Signals at 15 Minutes: 43,867 RLU
KPO4 pH 7.4, 15 minutes
  Signal to Background Ratios at 15 Minutes: 3.1
KPO4 pH 7.4, 60 minutes
  Signal to Background Ratios at 60 Minutes: 4.9
  Net Average Signals at 60 Minutes: 102,614 RLU
KPO4 pH 7.4, 105 minutes
  Signal to Background Ratios at 105 Minutes: 5.3
  Net Average Signals at 105 Minutes: 168,787 RLU
KPO4 pH 9.2, 15 minutes
  Signal to Background Ratios at 15 Minutes: 11.0
  Net Average Signals at 15 Minutes: 400,087 RLU
KPO4 pH 9.2, 60 minutes
  Signal to Background Ratios at 60 Minutes: 14.7
  Net Average Signals at 60 Minutes: 781,296 RLU
KPO4 pH 9.2, 105 minutes
  Signal to Background Ratios at 105 Minutes: 14.6
  Net Average Signals at 105 Minutes: 1,380,626 RLU
TRIS pH 10.4, 15 minutes
  Signal to Background Ratios at 15 Minutes: 32.9
  Net Average Signals at 15 Minutes: 1,530,303 RLU
TRIS pH 10.4, 60 minutes
  Signal to Background Ratios at 60 Minutes: 34.2
  Net Average Signals at 60 Minutes: 3,777,236 RLU
TRIS pH 10.4, 105 minutes
  Signal to Background Ratios at 105 Minutes: 26.5
  Net Average Signals at 105 Minutes: 6,279,007 RLU
Tris pH 7.4, 15 minutes
  Signal to Background Ratios at 15 Minutes: 6.6
  Net Average Signals at 15 Minutes: 121,480 RLU
Tris pH 7.4, 60 minutes
  Signal to Background Ratios at 60 Minutes: 13.2
  Net Average Signals at 60 Minutes: 371,397 RLU
Tris pH 7.4, 105 minutes
  Signal to Background Ratios at 105 Minutes: 13.6
  Net Average Signals at 105 Minutes: 658,967 RLU
